1 compound from PMC7515950, “Physiologically based pharmacokinetic modeling to assess metabolic drug–drug interaction risks and inform the drug label for fedratinib” (Cancer Chemotherapy and Pharmacology, 2020) can be followed below.

Values joined by “and” are separate entries in the source; they are usually repeats but may differ in a detail not shown here. Identical values can stand only once.

Series [1] in a line: Compartmental PK modeling of single-dose 500 mg data in healthy volunteers. The class given is in vivo, human. An excerpt: The PBPK model of fedratinib was constructed in Simcyp® by integrating available in vitro and in vivo information, including physiochemical parameters, permeability and blood binding parameters, enzyme and transporter inhibition parameters, and human PK parameters estimated from clinical PK data. A stepwise “middle-out” approach was applied to estimate the human PBPK parameters for fedratinib in Simcyp®. First, the temporal profiles of mean plasma concentration of fedratinib were collected from the clinical studies in healthy volunteers (HVs) administered single doses of 500 mg fedratinib. Then the preliminary human oral PK parameters were estimated as described in Supplemental Materials SM2 and SM3.
The minimal PBPK model within Simcyp® was used to describe the distribution of fedratinib. The Vss, Vsac, and Q values were estimated using the compartmental PK modeling approach (see Table 3 in Supplemental Material SM 3) and further refined within Simcyp® based on the model-predicted bioavailability (F) using the following equations: […]
The estimated values of Vss, Vsac, and Q were directly supplied to the Distribution module within Simcyp® without further modifications. Note that since the intravenous (IV) PK data are not available in humans for fedratinib, the distribution parameters include Vss estimated from the oral human PK data may not be accurate and will be subject to further verification if the human IV PK data of fedratinib or other relevant clinical information are available in the future.
The temporal profiles of mean plasma concentration of fedratinib were collected from the clinical studies (TDU12620, BDR12462, FED12258, and ALI13451) conducted in healthy volunteers (HVs) administered with single doses of 500 mg fedratinib. The compartmental PK modeling was conducted in Phoenix®/NLME (V7, Certara, Princeton, NJ). A two-compartment PK structural model with the additive error model was identified to successfully describe the PK data. The “naïve pooled” algorithm provided in Phoenix was used for parameter estimation.

Series [2] deals with CYP3A4. Description: CYP3A induction in primary human hepatocytes (IHH0014). The class given is in vitro ADME. An excerpt:
The induction effect of fedratinib on CYP3A gene expression was identified using human hepatocytes in primary culture. The reported kinetic data, i.e., concentration-dependent fold induction of CYP3A mRNA levels, were fitted to estimate the Indmax and IndC50 values for fedratinib with calibration against the induction effect observed for the positive control compound rifampin [9].

Series [3] has as its target T1, OATP1B3 (Homo sapiens, UniProt Q9NPD5).
T1 sequence (Q9NPD5 1-702): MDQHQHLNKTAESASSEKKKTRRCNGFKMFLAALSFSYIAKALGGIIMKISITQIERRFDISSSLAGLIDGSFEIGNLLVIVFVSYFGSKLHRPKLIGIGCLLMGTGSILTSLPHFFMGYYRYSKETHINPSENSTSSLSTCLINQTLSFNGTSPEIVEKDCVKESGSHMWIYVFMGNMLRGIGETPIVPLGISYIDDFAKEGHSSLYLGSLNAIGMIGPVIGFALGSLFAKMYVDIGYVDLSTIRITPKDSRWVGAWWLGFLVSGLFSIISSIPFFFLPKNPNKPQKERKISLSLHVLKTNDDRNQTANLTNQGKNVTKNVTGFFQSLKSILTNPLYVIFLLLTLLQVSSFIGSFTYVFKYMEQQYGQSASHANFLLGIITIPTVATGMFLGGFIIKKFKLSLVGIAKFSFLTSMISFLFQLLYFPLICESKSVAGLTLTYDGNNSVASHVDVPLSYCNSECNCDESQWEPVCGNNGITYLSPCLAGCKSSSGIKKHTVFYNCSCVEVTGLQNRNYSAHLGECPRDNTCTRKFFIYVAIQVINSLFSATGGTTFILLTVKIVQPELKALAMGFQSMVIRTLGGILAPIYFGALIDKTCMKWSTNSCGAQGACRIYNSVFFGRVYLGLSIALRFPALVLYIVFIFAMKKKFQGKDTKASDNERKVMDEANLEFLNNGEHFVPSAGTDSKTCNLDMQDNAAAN
Description: OATP1B3 inhibition, HEK-hOATP1B3 cells (TRE0075). Details: expressed in transfected cells; host or cells: HEK^TR-hOATP1B3. The class given is in vitro ADME. The text has this: (§1) The reported IC50 values were converted to Ki values using the Cheng-Prusoff equation [10]:
(§2) The transporter inhibition parameters (Ki) for fedratinib were derived from the experimentally determined IC50 values using the Cheng-Prusoff equation, i.e., Ki = IC50/(1+[S]/Km) with the substrate concentrations ([S]) reported in the experimental studies and the substrate Km values collected from literature, as summarized in Table 13.

Series [4] addresses T2, BCRP (Homo sapiens, UniProt Q9UNQ0).
T2 sequence (Q9UNQ0 1-655): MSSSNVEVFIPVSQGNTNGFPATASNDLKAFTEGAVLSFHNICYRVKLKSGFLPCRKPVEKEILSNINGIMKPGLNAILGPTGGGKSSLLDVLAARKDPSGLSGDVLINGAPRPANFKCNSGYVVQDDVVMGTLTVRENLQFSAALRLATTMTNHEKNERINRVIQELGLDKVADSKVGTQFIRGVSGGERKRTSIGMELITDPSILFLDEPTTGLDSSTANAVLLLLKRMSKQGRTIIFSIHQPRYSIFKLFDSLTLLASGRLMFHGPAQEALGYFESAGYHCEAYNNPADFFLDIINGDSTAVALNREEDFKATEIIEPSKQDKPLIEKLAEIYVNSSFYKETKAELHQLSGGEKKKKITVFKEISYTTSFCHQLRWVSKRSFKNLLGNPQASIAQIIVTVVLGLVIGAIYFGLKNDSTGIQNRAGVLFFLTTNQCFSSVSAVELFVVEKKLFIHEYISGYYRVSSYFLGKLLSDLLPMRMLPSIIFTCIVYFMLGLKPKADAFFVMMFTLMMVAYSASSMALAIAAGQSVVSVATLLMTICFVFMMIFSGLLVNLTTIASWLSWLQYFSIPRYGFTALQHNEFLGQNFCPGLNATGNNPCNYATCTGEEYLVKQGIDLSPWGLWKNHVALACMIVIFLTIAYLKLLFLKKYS
Description: BCRP inhibition, vesicle-based (TRI0013). The class given is in vitro ADME.
Source text: as §1, §2

Series [5] can be described thus: Biliary excretion in bile-duct cannulated rats (PDM-07-10348-059). The class given is in vivo. As to conditions: iv 5 mg/kg. The text has this:
The biliary excretion of unchanged drug accounts for 2.3% of the total intravenous dose in bile-duct cannulated (BDC) rats.

Setting [6] is: healthy subjects, single doses of 500 mg, two-compartment model.

By CL/F is commonly meant clearance divided by bioavailability, as obtained after extravascular dosing. Usually Ki stands for a measure of affinity in units of concentration, obtained from inhibition or displacement. A low value points to tighter binding. As usually defined, the IC50 is the concentration that gives 50% inhibition. Higher therefore signals weaker potency in that assay. `Cc1cnc(Nc2ccc(OCCN3CCCC3)cc2)nc1Nc1cccc(S(=O)(=O)NC(C)(C)C)c1` [Fedratinib] gave a ka in series [1] (Simcyp input) of 0.220 h⁻¹. Also, in series [1] (from compartmental modeling, assuming F ~0.36), the “Q (inter-compartment clearance)” value is reported as ~ 11 L/h. Moreover, the Vsac in series [1] (from compartmental modeling, assuming F ~0.36 and body weight ~81 kg) is 3.5 L/kg; in series [1] (from compartmental modeling, assuming F ~0.36 and body weight ~81 kg, listed as fedratinib), 3.5 L/kg. The “ka (first-order absorption constant)” value in series [1] (healthy subjects, single doses of 500 mg) is 0.22 h⁻¹ and 0.221 h⁻¹; in series [1] (healthy subjects, single doses of 500 mg, listed as fedratinib), ~ 0.22 h^-1. The CL2/F in series [1] (setting [6]) turned out to be 30.8 L/h. The compound also showed an apparent clearance CL/F in series [1] (setting [6]) of 27.2 L/h. In series [1] (setting [6]), this compound showed a V2/F of 797 L. This compound also displayed a V/F in series [1] (setting [6]) of 107 L. The Vd in series [1] (human, plasma, oral, 500 mg, from compartmental modeling, assuming F ~0.36 and body weight ~81 kg, read-out: Vss) was about 4.1 L/kg. In addition, the “CYP3A4 Ind max” value in series [2] (Simcyp input) was 78.000. In addition, the EC50 in series [2] (human, human hepatocytes in primary culture, CYP3A mRNA, fitted, calibrated against rifampin, read-out: CYP3A4 IndC50) stood at 5.3 µM. Further, the “CYP3A Indmax” value in series [2] (maximal fold induction over vehicle, CYP3A mRNA, calibrated against rifampin) is 78.0. Further, the Ki was found to be 8.4 µM in series [3] (from IC50 by Cheng-Prusoff, probe CCK8) and 27.8 µM in series [4] (from IC50 by Cheng-Prusoff, probe methotrexate). Besides, the IC50 in series [3] (probe CCK8 0.5 μM) was found to be 9.51 µM; in series [4] (probe methotrexate 100 μM), 29.9 µM. Further, in series [5], the “biliary excretion of unchanged drug, percent of total intravenous dose” value is on record as 2.3%.
